Data as given in patent publication US20140120083A1, “TREATMENT OF CANCERS USING PI3 KINASE ISOFORM MODULATORS” (INFINITY PHARMACEUTICALS, INC., priority 2012, published 2014).
“Also recorded” adds a separate entry of the source. Where two headings read alike, the source gives them in different places. Marks after values point to notes of the source that are not given here.

Tests used:
[1] = Plasma protein binding, monkey; format: in vitro ADME; conditions: 100 μM (41700 ng/mL)
Excerpt: (§1) […]. […] […].

[2] = Plasma protein binding, human; format: in vitro ADME; conditions: 100 μM (41700 ng/mL)
Excerpt: as §1

[3] = Clinical study in healthy adult subjects, pharmacokinetics; format: in vivo, human; conditions: for AUC(0-24) / AUC(0-inf) / Cmax / T1/2 / half-life / AUC: mean (% CV); for AUC: read-out: AUC(0-tau)
[4] = tested on: TNF-α and IL-10 production; test: Cytokine production in diluted whole blood stimulated with LPS; format: cell-based; conditions: diluted whole blood (1:1), 24 hours pre-treatment, 100 μg/mL LPS
Protocol: Serum concentrations of a panel of human cytokines/chemokines were determined by Milliplex 96-well immuno-assay as described below.

[5] = tested on: respiratory system; test: Respiratory study (plethysmography); conditions: male rats, single oral dose up to 350 mg/kg
[6] = tested on: central nervous system; test: Neurofunctional study (FOB, motor activity); conditions: male rats
[7] = Clinical study in healthy adult subjects, safety
[8] = biological target: PI3K δ (Homo sapiens, UniProt O00329); test: Clinical study in healthy subjects, basophil activation (CD63 on CCR3+ basophils, ex vivo anti-FcεR1); parameters: from tissue; host or cells: human whole blood (basophils)
[9] = Phase 1 study in advanced hematologic malignancies, safety
[10] = tested on: hematologic malignancies; test: Phase 1 study in advanced hematologic malignancies, clinical response
[11] = DDI portion, 200 mg q12h ketoconazole
[12] = human, plasma, oral, 1 mg, 1 mg Q12 h, Day 1
[13] = human, plasma, oral, 1 mg, 1 mg Q12 h, Day 14
[14] = human, plasma, oral, 2 mg, 2 mg Q12 h, Day 1
[15] = human, plasma, oral, 2 mg, 2 mg Q12 h, Day 14
[16] = human, plasma, oral, 5 mg, 5 mg Q12 h, Day 1
[17] = human, plasma, oral, 5 mg, 5 mg Q12 h, Day 14
[18] = human, plasma, oral, 10 mg, 10 mg Q24 h, Day 1
[19] = human, plasma, oral, 10 mg, 10 mg Q24 h, Day 14
[20] = multiple doses for 2 weeks (n=36)

Sequence of PI3K δ (O00329 whole entry): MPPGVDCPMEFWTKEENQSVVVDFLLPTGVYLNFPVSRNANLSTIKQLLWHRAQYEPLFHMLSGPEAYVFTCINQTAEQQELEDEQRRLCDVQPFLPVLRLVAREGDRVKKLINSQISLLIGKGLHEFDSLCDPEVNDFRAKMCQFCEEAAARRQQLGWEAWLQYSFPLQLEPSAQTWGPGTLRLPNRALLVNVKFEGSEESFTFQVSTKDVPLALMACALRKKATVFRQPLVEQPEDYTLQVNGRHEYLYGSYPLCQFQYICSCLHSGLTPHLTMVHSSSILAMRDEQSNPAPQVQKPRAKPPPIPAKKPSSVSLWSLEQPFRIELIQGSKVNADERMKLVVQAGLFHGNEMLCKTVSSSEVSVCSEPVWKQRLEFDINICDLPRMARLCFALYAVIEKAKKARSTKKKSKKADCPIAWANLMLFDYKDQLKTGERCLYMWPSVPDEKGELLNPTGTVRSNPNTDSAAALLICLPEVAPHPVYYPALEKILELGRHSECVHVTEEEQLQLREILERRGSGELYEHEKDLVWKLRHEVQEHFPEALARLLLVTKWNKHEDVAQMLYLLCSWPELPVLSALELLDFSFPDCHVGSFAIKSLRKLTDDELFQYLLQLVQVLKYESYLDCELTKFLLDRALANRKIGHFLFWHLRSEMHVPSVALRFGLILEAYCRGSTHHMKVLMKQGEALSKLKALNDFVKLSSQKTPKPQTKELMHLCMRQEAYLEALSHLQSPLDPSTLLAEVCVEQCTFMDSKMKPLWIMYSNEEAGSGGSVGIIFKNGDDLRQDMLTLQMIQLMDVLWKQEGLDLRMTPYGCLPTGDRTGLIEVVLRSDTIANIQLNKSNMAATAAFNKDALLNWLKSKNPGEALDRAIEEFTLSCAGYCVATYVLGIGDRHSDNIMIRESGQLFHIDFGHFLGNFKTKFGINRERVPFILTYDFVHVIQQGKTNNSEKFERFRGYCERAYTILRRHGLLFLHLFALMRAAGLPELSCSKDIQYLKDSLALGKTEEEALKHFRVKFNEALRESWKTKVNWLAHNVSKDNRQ
Sequence of PI3K δ (P27986 whole entry partner): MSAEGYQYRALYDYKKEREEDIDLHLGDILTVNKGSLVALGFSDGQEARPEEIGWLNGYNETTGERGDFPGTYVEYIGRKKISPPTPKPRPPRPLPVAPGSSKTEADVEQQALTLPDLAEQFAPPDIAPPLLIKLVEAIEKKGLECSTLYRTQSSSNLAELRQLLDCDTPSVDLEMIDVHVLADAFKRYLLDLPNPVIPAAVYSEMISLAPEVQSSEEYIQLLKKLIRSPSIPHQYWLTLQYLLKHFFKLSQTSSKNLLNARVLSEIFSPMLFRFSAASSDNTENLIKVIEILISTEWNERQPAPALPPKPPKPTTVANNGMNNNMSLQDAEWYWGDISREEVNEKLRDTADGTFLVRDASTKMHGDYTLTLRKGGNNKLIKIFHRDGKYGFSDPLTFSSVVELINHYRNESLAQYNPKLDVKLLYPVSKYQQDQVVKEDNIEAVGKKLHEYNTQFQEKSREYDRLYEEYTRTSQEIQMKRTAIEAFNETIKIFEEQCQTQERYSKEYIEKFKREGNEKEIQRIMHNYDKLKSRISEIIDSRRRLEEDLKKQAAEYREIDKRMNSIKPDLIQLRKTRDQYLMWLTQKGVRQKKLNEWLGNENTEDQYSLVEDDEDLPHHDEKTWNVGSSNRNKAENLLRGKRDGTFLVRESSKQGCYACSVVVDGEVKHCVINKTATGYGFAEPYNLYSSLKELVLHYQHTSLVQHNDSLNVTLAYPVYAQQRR

C[C@H](Nc1ncnc2[nH]cnc12)c1cc2cccc(Cl)c2c(=O)n1-c1ccccc1 [Compound 292]
protein bound [1]: 76.8% | protein bound [2]: 85.9% | AUC(0-24) ([3]; 1 mg single dose): 149 (67) ng * hr/mL | AUC(0-inf) ([3]; 1 mg single dose): 151 (68) ng * hr/mL | Cmax ([3]; 1 mg single dose): 43.4 (31) ng/mL | T1/2 ([3]; 1 mg single dose): 3.52 (29) hr | AUC(0-24) ([3]; 2 mg single dose): 289 (43) ng * hr/mL | AUC(0-inf) ([3]; 2 mg single dose): 296 (44) ng * hr/mL | Cmax ([3]; 2 mg single dose): 78.8 (16) ng/mL | T1/2 ([3]; 2 mg single dose): 5.43 (25) hr | AUC(0-24) ([3]; 5 mg single dose): 733 (5) ng * hr/mL | AUC(0-inf) ([3]; 5 mg single dose): 743 (5) ng * hr/mL | Cmax ([3]; 5 mg single dose): 246 (16) ng/mL | T1/2 ([3]; 5 mg single dose): 5.43 (10) hr | AUC(0-24) ([3]; 10 mg single dose): 891 (14) ng * hr/mL | AUC(0-inf) ([3]; 10 mg single dose): 914 (14) ng * hr/mL | Cmax ([3]; 10 mg single dose): 454 (40) ng/mL | T1/2 ([3]; 10 mg single dose): 9.47 (38) hr | AUC(0-24) ([3]; 20 mg single dose): 2193 (16) ng * hr/mL | AUC(0-inf) ([3]; 20 mg single dose): 2250 (16) ng * hr/mL | Cmax ([3]; 20 mg single dose): 997 (32) ng/mL | T1/2 ([3]; 20 mg single dose): 7.79 (51) hr | AUC(0-24) ([3]; 30 mg single dose): 3263 (38) ng * hr/mL | AUC(0-inf) ([3]; 30 mg single dose): 3395 (38) ng * hr/mL | Cmax ([3]; 30 mg single dose): 1140 (38) ng/mL | T1/2 ([3]; 30 mg single dose): 8.12 (18) hr | increase of AUC0-inf in the presence of ketoconazole [3, 11]: ~295% | increase of AUC0-last in the presence of ketoconazole [3, 11]: ~285% | increase of Cmax in the presence of ketoconazole [3, 11]: approximately 66% | excretion of unchanged compound in urine ([3]; healthy subjects): < 2 % of the administered dose | accumulation ([3]; healthy subjects, 14 days of Q12 h oral administration): less than 2 fold | half-life [3, 12]: 3.46 h | AUC [3, 12]: 124 ng·h/mL | Cmax ([3]; human, plasma, oral, 1 mg, 1 mg Q12 h, Day 1, read-out: Cmax): 49.1 ng/mL | half-life [3, 13]: 6.46 h | AUC [3, 13]: 199 ng·h/mL | Cmax ([3]; human, plasma, oral, 1 mg, 1 mg Q12 h, Day 14, read-out: Cmax): 66.8 ng/mL | half-life [3, 14]: 6.34 h | AUC [3, 14]: 290 ng·h/mL | Cmax ([3]; human, plasma, oral, 2 mg, 2 mg Q12 h, Day 1, read-out: Cmax): 101 ng/mL | half-life [3, 15]: 9.75 h | AUC [3, 15]: 524 ng·h/mL | Cmax ([3]; human, plasma, oral, 2 mg, 2 mg Q12 h, Day 14, read-out: Cmax): 140 ng/mL | half-life [3, 16]: 5.76 h | AUC [3, 16]: 774 ng·h/mL | Cmax ([3]; human, plasma, oral, 5 mg, 5 mg Q12 h, Day 1, read-out: Cmax): 257 ng/mL | half-life [3, 17]: 8.32 h | AUC [3, 17]: 1290 ng·h/mL | Cmax ([3]; human, plasma, oral, 5 mg, 5 mg Q12 h, Day 14, read-out: Cmax): 355 ng/mL | half-life [3, 18]: 6 h | AUC [3, 18]: 1530 ng·h/mL | Cmax ([3]; human, plasma, oral, 10 mg, 10 mg Q24 h, Day 1, read-out: Cmax): 553 ng/mL | half-life [3, 19]: 11.7 h | AUC [3, 19]: 2230 ng·h/mL | Cmax ([3]; human, plasma, oral, 10 mg, 10 mg Q24 h, Day 14, read-out: Cmax): 605 ng/mL | AUC(0-t) ([3]; human, plasma, healthy subjects, 5 mg BID, 14 days of oral dosing, read-out: mean AUC0-24 hr): 2580 ng·h/mL | IL-10 production [4]: inhibition | TNF-α production [4]: inhibition | respiratory parameters (respiratory rate, tidal volume, minute volume) [5]: no Compound 292-related effects | locomotor activity ([6]; 2 h after a 350 mg/kg oral dose): Significant decreases | effects on the central nervous system ([6]; dose levels≦50 mg/kg): No effects | qualitative or quantitative FOB parameters ([6]; single oral dose up to 350 mg/kg, up to 24 h post-dose): no changes | IgE ([7]; healthy subjects): No increases | deaths and serious adverse events ([7]; healthy subjects): no deaths and no serious adverse events | safety laboratory or ECG abnormalities ([7]; healthy subjects): No clinically significant safety laboratory or electrocardiogram (ECG) abnormalities | QTcF greater than 500 msec ([7]; healthy subjects, serial ECGs): No subject | largest change from baseline in QTcF ([7]; healthy subjects, serial ECGs): 37 ms | tolerability ([7]; healthy subjects, single doses up to 30 mg, up to 10 mg daily for 14 days): well tolerated; also recorded: well-tolerated | headache [7, 20]: 8% | myalgia [7, 20]: 6% | nasopharyngitis [7, 20]: 6% | basophil activation (CD63 expression on CCR3+ basophils) ([8]; all single and multiple dose levels): dose-dependent reduction; also recorded: reduced in a dose-dependent manner | dose at which maximal PD response was achieved ([8]; single dose): 5 mg | dose limiting toxicity ([9]; 15 mg BID dose cohort): Grade 4 neutropenia | AE Leading to Discontinuation ([9]; 25 mg BID (n = 34)): 2 n | Any AE ([9]; 25 mg BID (n = 34)): 27 n | Any AE Grade 3 ([9]; 25 mg BID (n = 34)): 7 n | Any AE Grade 4 ([9]; 25 mg BID (n = 34)): 5 n | Deaths on Study ([9]; 25 mg BID (n = 34)): 0 n | Dose Reduced (New Grade 3/4 ALT) ([9]; 25 mg BID (n = 34)): 3 n | Dose Reduced (New Grade 3/4 ANC) ([9]; 25 mg BID (n = 34)): 2 n | New Grade 3 ALT ([9]; 25 mg BID (n = 34)): 3 n | New Grade 3 ANC ([9]; 25 mg BID (n = 34)): 2 n | New Grade 4 ANC ([9]; 25 mg BID (n = 34)): 4 n | Related AE ([9]; 25 mg BID (n = 34)): 18 n | Related Grade 3 AE ([9]; 25 mg BID (n = 34)): 4/4 n | Related Grade 4 AE ([9]; 25 mg BID (n = 34)): 4/4 n | SAE ([9]; 25 mg BID (n = 34)): 4 n | dose limiting toxicity ([9]; 75 mg BID): Grade 3 cellulitis | new Grade>3 neutropenia, n (%) ([9]; 20 patients, 8-50 mg BID): 6 (30%) | new Grade>3 thrombocytopenia, n (%) ([9]; 20 patients, 8-50 mg BID): 1 (5%) | patients with AEs Grade>3 ([9]; 20 patients, 8-50 mg BID): 7 (35%) | patients with adverse events ([9]; 20 patients, 8-50 mg BID): 13 (65%) | patients with treatment-related AEs ([9]; 20 patients, 8-50 mg BID): 11 patients | patients with treatment-related AEs Grade>3 ([9]; 20 patients, 8-50 mg BID): 5 patients | Grade 3 ALT/AST elevations, n (%) ([9]; 20 patients, 8-50 mg BID, MM patient): 1 (5%) | AE Leading to Discontinuation ([9]; Safety Population (n = 55)): 3 n | Any AE ([9]; Safety Population (n = 55)): 46 n | Any AE Grade 3 ([9]; Safety Population (n = 55)): 18 n | Any AE Grade 4 ([9]; Safety Population (n = 55)): 8 n | Deaths on Study ([9]; Safety Population (n = 55)): 3 n | Dose Reduced (New Grade 3/4 ALT) ([9]; Safety Population (n = 55)): 6 n | Dose Reduced (New Grade 3/4 ANC) ([9]; Safety Population (n = 55)): 5 n | New Grade 3 ALT ([9]; Safety Population (n = 55)): 5 n | New Grade 3 ANC ([9]; Safety Population (n = 55)): 10 n | New Grade 4 ANC ([9]; Safety Population (n = 55)): 5 n | Related AE ([9]; Safety Population (n = 55)): 31 n | Related Grade 3 AE ([9]; Safety Population (n = 55)): 14 n | Related Grade 4 AE ([9]; Safety Population (n = 55)): 6 n | SAE ([9]; Safety Population (n = 55)): 11 n | MTD ([9]; after dose escalation to 75 mg BID): not yet reached | tolerability ([9]; patients with advanced hematologic malignancies): well tolerated; also recorded: well-tolerated | onset of clinical activity ([10]; CLL/SLL): Rapid onset | responses in evaluable patients ([10]; CLL/SLL, 8, 15, and 25 mg BID dose levels): ⅔ | Best Observed Response CR ([10]; CLL/SLL, 11 evaluable): 0 n | Best Observed Response PR ([10]; CLL/SLL, 11 evaluable): 6 n | Best Observed Response SD ([10]; CLL/SLL, 11 evaluable, four nodal responses): 4^c n | Best Observed Response PR ([10]; HL, 2 evaluable): 0 n | Best Observed Response SD ([10]; HL, 2 evaluable): 0 n | Best Observed Response CR ([10]; MCL, 3 evaluable): 0 n | Best Observed Response PR ([10]; MCL, 3 evaluable): 2 n | Best Observed Response SD ([10]; MCL, 3 evaluable): 0 n | responses in evaluable patients ([10]; MCL, 8, 15, and 25 mg BID dose levels): 1/1 | Best Observed Response CR ([10]; MM, 3 evaluable): 0 n | Best Observed Response PD ([10]; MM, 3 evaluable): 2 n | Best Observed Response PR ([10]; MM, 3 evaluable): 0 n | Best Observed Response PD ([10]; T-Cell Lymphoma, 6 evaluable): 3 n | doses at which responses were observed ([10]; T-cell lymphoma and Hodgkin lymphoma): ≥ 50 mg BID | Best Observed Response CR ([10]; aNHL, 3 evaluable): 0 n | Best Observed Response PD ([10]; aNHL, 3 evaluable): 2 n | Best Observed Response PR ([10]; aNHL, 3 evaluable): 0 n | tumor mass ([10]; all indications and all dose levels evaluated): Reduction in tumor mass | responses in evaluable patients ([10]; iNHL, 8, 15, and 25 mg BID dose levels): ½ | Best Observed Response PR ([10]; iNHL, 13 evaluable): 7 n | Best Observed Response SD ([10]; iNHL, 13 evaluable): 4 n | doses at which responses were observed ([10]; iNHL, CLL/SLL, and MCL): ≤ 50 mg BID | pulmonary metastases by PET/CT ([10]; patient, enteropathy-associated T-cell lymphoma, 2 cycles, 60 mg BID): complete resolution
